Source: ChEMBL document CHEMBL5108002, “Design, synthesis, and biological evaluation of novel 7-substituted 10,11-methylenedioxy-camptothecin derivatives against drug-resistant small-cell lung cancer in vitro and in vivo” (Eur J Med Chem, 2022)
Active and inactive are the calls of the source. The calls are words filed in the database; no cut-off is given here.

How the values were obtained:
[1] = tested on: Bel-7402; assay: Antiproliferative activity against human Bel-7402 cells assessed as inhibition of cell growth incubated for 72 hrs by SRB assay; type: functional, cell-based; settings: Bel-7402, 72 h
[2] = tested on: Mus musculus; assay: Downregulation of Mcl-1 protein expression in tumor of BALB/c mouse xenografted with human NCI-H446 cells at 0.75 mg/kg, IG administered intragastrically once a week for 28 days by western blot analysis; type: functional, organism-based; settings: time 28.0 day
[3] = tested on: H69AR; assay: Induction of apoptosis in human NCI-H69AR cells assessed as late apoptotic cells at 1 nM incubated for 24 hrs by AnnexinV-FITC/PI staining based flow cytometry analysis (reference value: 2.99 %); type: functional
[4] = Resistance index, ratio of IC50 for antiproliferative activity against etoposide/cisplatin combination-resistant human NCI-H446 cells to IC50 for antiproliferative activity against human NCI-H446 cells; type: functional
[5] = tested on: H69AR; assay: Induction of apoptosis in human NCI-H69AR cells assessed as inhibition of survivin protein expression at 0.1 to 100 nM incubated for 24 hrs by Western blot analysis; type: functional, cell-based; settings: dose 0.1-100 nM
[6] = Toxicity in BALB/c nude mouse xenografted with human NCI-H446 cells assessed as reduction in body weight at high dose administered intragastrically once a week for 28 days and measured three times a week; settings: in vivo, po, 672 h, route ig, time 28 day
[7] = tested on: NCI-H446; assay: Induction of apoptosis in human NCI-H446 cells assessed as dead cells at 10 nM incubated for 24 hrs by AnnexinV-FITC/PI staining based flow cytometry analysis (reference value: 0.22 %); type: functional
[8] = tested on: NCI-H69; assay: Induction of apoptosis in human NCI-H69 cells assessed as increase in cleaved-caspase 9 protein expression at 0.1 to 100 nM measured after 24 hrs by Western blot analysis; type: functional, cell-based; settings: dose 0.1-100 nM
[9] = tested on: NCI-H446; assay: Induction of apoptosis in human NCI-H446 cells assessed as reduction in Mcl-1 mRNA level at 0.1 to 100 nM incubated for 24 hrs by RT-PCR analysis; type: functional, cell-based; settings: dose 0.1-100 nM
[10] = tested on: NCI-H446; assay: Induction of apoptosis in human NCI-H446 cells assessed as dead cells at 1 nM incubated for 24 hrs by AnnexinV-FITC/PI staining based flow cytometry analysis (reference value: 0.22 %); type: functional
[11] = tested on: NCI-H446; assay: Induction of apoptosis in human NCI-H446 cells assessed as late apoptotic cells at 10 nM incubated for 24 hrs by AnnexinV-FITC/PI staining based flow cytometry analysis (reference value: 0.37 %); type: functional
[12] = tested on: NCI-H446; assay: Antitumor activity against human NCI-H446 cells xenografted in BALB/c nude mouse assessed as tumor growth inhibition at 0.75 mg/kg, IG administered once a week for 28 days by electronic caliper method relative to control; type: functional; settings: NCI-H446, po, 672 h, time 28 day, read-out: TGI

For `CC[C@@]1(O)C(=O)OCc2c1cc1n(c2=O)Cc2c-1nc1cc3c(cc1c2-c1ccoc1)OCO3`, the IC50 [1] was 3.8 nM, the Activity [2] was “Active” and the Activity [3] was 7.02%. For the same molecule, the “Ratio IC50” value [4] was 0.63, the inhibition [5] was “Active” and the Activity [6] was “Toxic”. For the same molecule, the Activity [7] was 2.78%, the Activity [8] was “Active” and the Activity [9] was “Active”. It also gave an Activity [10] of 3.79%, an Activity [11] of 6.25% and an inhibition in vivo at 0.75 mg/kg [12] of 40.4%.
